Measured values from ChEMBL document CHEMBL4715855, “N-phenyl ureidobenzenesulfonates, a novel class of promising human dihydroorotate dehydrogenase inhibitors” (Bioorg Med Chem, 2020).

Legend:
Type in all cases: functional, cell-based
CCRF-CEM = experiment: Antiproliferative activity against human CCRF-CEM cells assessed as cell growth inhibition measured after 48 hrs by sulforhodamine B assay
A498 = experiment: Antiproliferative activity against human A498 cells assessed as cell growth inhibition measured after 48 hrs by sulforhodamine B assay; settings: A498, 48 h
NCI/ADR-RES = experiment: Antiproliferative activity against human NCI/ADR-RES cells assessed as cell growth inhibition measured after 48 hrs by sulforhodamine B assay
COLO 205 = experiment: Antiproliferative activity against human COLO 205 cells assessed as cell growth inhibition measured after 48 hrs by sulforhodamine B assay; settings: COLO 205, 48 h
SW-620 = experiment: Antiproliferative activity against human SW-620 cells assessed as cell growth inhibition measured after 48 hrs by sulforhodamine B assay; settings: SW-620, 48 h
SF-295 = experiment: Antiproliferative activity against human SF-295 cells assessed as cell growth inhibition measured after 48 hrs by sulforhodamine B assay; settings: SF-295, 48 h
SR = experiment: Antiproliferative activity against human SR cells assessed as cell growth inhibition measured after 48 hrs by sulforhodamine B assay
T47D = experiment: Antiproliferative activity against human T47D cells assessed as cell growth inhibition measured after 48 hrs by sulforhodamine B assay
MOLT-4 = experiment: Antiproliferative activity against human MOLT-4 cells assessed as cell growth inhibition measured after 48 hrs by sulforhodamine B assay; settings: MOLT-4, 48 h
MCF7 [1] = experiment: Antiproliferative activity against human MCF7 cells assessed as cell growth inhibition measured after 48 hrs in presence of uridine by SRB assay; settings: MCF7, 48 h
RPMI-8226 = experiment: Antiproliferative activity against human RPMI-8226 cells assessed as cell growth inhibition measured after 48 hrs by sulforhodamine B assay; settings: RPMI-8226, 48 h
SNB-75 = experiment: Antiproliferative activity against human SNB-75 cells assessed as cell growth inhibition measured after 48 hrs by sulforhodamine B assay; settings: SNB-75, 48 h
IGROV-1 = experiment: Antiproliferative activity against human IGROV-1 cells assessed as cell growth inhibition measured after 48 hrs by sulforhodamine B assay; settings: IGROV-1, 48 h
HOP-62 = experiment: Antiproliferative activity against human HOP-62 cells assessed as cell growth inhibition measured after 48 hrs by sulforhodamine B assay; settings: HOP-62, 48 h
MCF7 [2] = experiment: Antiproliferative activity against human MCF7 cells assessed as cell growth inhibition measured after 48 hrs by SRB assay; settings: MCF7, 48 h
K562 = experiment: Antiproliferative activity against human K562 cells assessed as cell growth inhibition incubated for 48 hrs by sulforhodamine B assay; settings: K562, 48 h
A549 = experiment: Antiproliferative activity against human A549/ATCC cells assessed as cell growth inhibition measured after 48 hrs by sulforhodamine B assay; settings: A549, 48 h
SF-539 = experiment: Antiproliferative activity against human SF-539 cells assessed as cell growth inhibition measured after 48 hrs by sulforhodamine B assay; settings: SF-539, 48 h
NCI-H322M = experiment: Antiproliferative activity against human NCI-H322M cells assessed as cell growth inhibition measured after 48 hrs by sulforhodamine B assay
PC-3 = experiment: Antiproliferative activity against human PC-3 cells assessed as cell growth inhibition measured after 48 hrs by sulforhodamine B assay; settings: PC-3, 48 h
HT-1080 [3] = experiment: Antiproliferative activity against human HT-1080 cells assessed as cell growth inhibition measured after 48 hrs by SRB assay; settings: HT-1080, 48 h
CAKI-1 = experiment: Antiproliferative activity against human CAKI-1 cells assessed as cell growth inhibition measured after 48 hrs by sulforhodamine B assay; settings: CAKI-1, 48 h
OVCAR-3 = experiment: Antiproliferative activity against human OVCAR-3 cells assessed as cell growth inhibition measured after 48 hrs by sulforhodamine B assay; settings: OVCAR-3, 48 h
SNB-19 = experiment: Antiproliferative activity against human SNB-19 cells assessed as cell growth inhibition measured after 48 hrs by sulforhodamine B assay; settings: SNB-19, 48 h
SK-MEL-5 = experiment: Antiproliferative activity against human SK-MEL-5 cells assessed as cell growth inhibition measured after 48 hrs by sulforhodamine B assay; settings: SK-MEL-5, 48 h
UACC-257 = experiment: Antiproliferative activity against human UACC-257 cells assessed as cell growth inhibition measured after 48 hrs by sulforhodamine B assay; settings: UACC-257, 48 h
SF-268 = experiment: Antiproliferative activity against human SF-268 cells assessed as cell growth inhibition measured after 48 hrs by sulforhodamine B assay; settings: SF-268, 48 h
Hs-578T = experiment: Antiproliferative activity against human Hs-578T cells assessed as cell growth inhibition measured after 48 hrs by sulforhodamine B assay
M14 = experiment: Antiproliferative activity against human M14 cells assessed as cell growth inhibition measured after 48 hrs by sulforhodamine B assay; settings: M14, 48 h
HCC 2998 = experiment: Antiproliferative activity against human HCC 2998 cells assessed as cell growth inhibition measured after 48 hrs by sulforhodamine B assay; settings: HCC 2998, 48 h
HOP-92 = experiment: Antiproliferative activity against human HOP-92 cells assessed as cell growth inhibition measured after 48 hrs by sulforhodamine B assay; settings: HOP-92, 48 h
Malme-3M = experiment: Antiproliferative activity against human Malme-3M cells assessed as cell growth inhibition measured after 48 hrs by sulforhodamine B assay
UACC-62 = experiment: Antiproliferative activity against human UACC-62 cells assessed as cell growth inhibition measured after 48 hrs by sulforhodamine B assay; settings: UACC-62, 48 h
SK-MEL-2 = experiment: Antiproliferative activity against human SK-MEL-2 cells assessed as cell growth inhibition measured after 48 hrs by sulforhodamine B assay; settings: SK-MEL-2, 48 h
HT-1080 [4] = experiment: Antiproliferative activity against human HT-1080 cells assessed as cell growth inhibition measured after 48 hrs in presence of uridine by SRB assay; settings: HT-1080, 48 h
KM12 = experiment: Antiproliferative activity against human KM12 cells assessed as cell growth inhibition measured after 48 hrs by sulforhodamine B assay; settings: KM12, 48 h
SN12C = experiment: Antiproliferative activity against human SN12C cells assessed as cell growth inhibition measured after 48 hrs by sulforhodamine B assay
BT-549 = experiment: Antiproliferative activity against human BT-549 cells assessed as cell growth inhibition measured after 48 hrs by sulforhodamine B assay; settings: BT-549, 48 h
RXF 393 = experiment: Antiproliferative activity against human RXF 393 cells assessed as cell growth inhibition measured after 48 hrs by sulforhodamine B assay; settings: RXF 393, 48 h
DU-145 = experiment: Antiproliferative activity against human DU-145 cells assessed as cell growth inhibition measured after 48 hrs by sulforhodamine B assay; settings: DU-145, 48 h
HT-29 = experiment: Antiproliferative activity against human HT-29 cells assessed as cell growth inhibition measured after 48 hrs in presence of uridine by SRB assay; settings: HT-29, 48 h

## CCNC(=O)Nc1ccc(S(=O)(=O)Oc2ccccc2CC)cc1
CCRF-CEM
  IC50: 0.912 µM
A498
  IC50: 5.89 µM
NCI/ADR-RES
  IC50: 3.55 µM
COLO 205
  IC50: 2.51 µM
SW-620
  IC50: 2.75 µM
SF-295
  IC50: 0.759 µM
SR
  IC50: 0.741 µM
T47D
  IC50: 16.2 µM
MOLT-4
  IC50: 0.282 µM
MCF7 [1]
  IC50: 18 µM
RPMI-8226
  IC50: 1.38 µM
SNB-75
  IC50: 9.12 µM
IGROV-1
  IC50: 5.89 µM
HOP-62
  IC50: 14.5 µM
MCF7 [2]; read-out: IC50
  IC50: 5.9 µM
MCF7 [2]; read-out: pIC50 (converted)
  IC50: 3.24 µM
K562
  IC50: 0.282 µM
A549
  IC50: 0.955 µM
SF-539
  IC50: 2.14 µM
NCI-H322M
  IC50: 12.9 µM
PC-3
  IC50: 0.832 µM
HT-1080 [3]
  IC50: 0.45 µM
CAKI-1
  IC50: 0.759 µM
OVCAR-3
  IC50: 6.61 µM
SNB-19
  IC50: 3.63 µM
SK-MEL-5
  IC50: 2.45 µM
UACC-257
  IC50: 13.2 µM
SF-268
  IC50: 2.88 µM
Hs-578T
  IC50: 11.2 µM
M14
  IC50: 4.17 µM
HCC 2998
  IC50: 17 µM
HOP-92
  IC50: 6.61 µM
Malme-3M
  IC50: 17.8 µM
UACC-62
  IC50: 2.51 µM
SK-MEL-2
  IC50: 16.2 µM
HT-1080 [4]
  IC50: 7.4 µM
KM12
  IC50: 1.15 µM
SN12C
  IC50: 7.24 µM
BT-549
  IC50: 11.7 µM
RXF 393
  IC50: 12.6 µM
DU-145
  IC50: 1.23 µM
HT-29
  IC50: 27 µM

## Cc1c(-c2ccc(-c3ccccc3F)cc2)nc2ccc(F)cc2c1C(=O)O [BREQUINAR]
CCRF-CEM
  IC50: 0.282 µM
A498
  IC50: 50.1 µM
NCI/ADR-RES
  IC50: 2.19 µM
COLO 205
  IC50: 0.513 µM
SW-620
  IC50: 0.38 µM
SF-295
  IC50: 0.24 µM
SR
  IC50: 0.427 µM
T47D
  IC50: 17 µM
MOLT-4
  IC50: 0.0891 µM
MCF7 [1]
  IC50: 25 µM
RPMI-8226
  IC50: 0.372 µM
SNB-75
  IC50: 81.3 µM
IGROV-1
  IC50: 0.302 µM
HOP-62
  IC50: 1.1 µM
MCF7 [2]; read-out: IC50
  IC50: 5.1 µM
MCF7 [2]; read-out: pIC50 (converted)
  IC50: 0.269 µM
K562
  IC50: 0.145 µM
A549
  IC50: 0.234 µM
SF-539
  IC50: 0.347 µM
NCI-H322M
  IC50: 15.1 µM
PC-3
  IC50: 0.759 µM
HT-1080 [3]
  IC50: 0.21 µM
CAKI-1
  IC50: 0.912 µM
OVCAR-3
  IC50: 3.72 µM
SNB-19
  IC50: 1.26 µM
SK-MEL-5
  IC50: 1.38 µM
UACC-257
  IC50: 12.6 µM
SF-268
  IC50: 0.372 µM
Hs-578T
  IC50: 6.92 µM
M14
  IC50: 4.68 µM
HCC 2998
  IC50: 9.55 µM
HOP-92
  IC50: 35.5 µM
Malme-3M
  IC50: 15.5 µM
UACC-62
  IC50: 0.263 µM
SK-MEL-2
  IC50: 61.7 µM
HT-1080 [4]
  IC50: 17 µM
KM12
  IC50: 0.209 µM
SN12C
  IC50: 1.78 µM
BT-549
  IC50: 57.5 µM
RXF 393
  IC50: 11.7 µM
DU-145
  IC50: 0.263 µM
HT-29
  IC50: 24 µM
